Measured values reported in US5698670A, “Aureobasidins” (priority 1993, dated 1997).
In brackets after ≈: the same amount, converted by molar mass. Read-outs that look alike come from different tables or passages of the source. Numbered stars: 1 amine (or outer) side, 2 acyl side, 3 side chain; on linkers, the order of the positions; unused ones are H or OH. Square brackets hold non-standard residues; d marks the D form. Peptide text beside a SMILES is read from it. * marks the point of attachment. X1 = CC[C@@H](C)[C@@H](O[*:1])C(=O)[*:2]; NMeVal(β-OH) = CN[C@H](C(=O)O)C(C)(C)O; NMeF = CN[C@@H](Cc1ccccc1)C(=O)O; aIle = CC[C@@H](C)[C@H](N)C(=O)O; Cyclohexylmethyl = C1CCC(C*)CC1; Cha = N[C@@H](CC1CCCCC1)C(=O)O; dNMeV = CN[C@@H](C(=O)O)C(C)C; NMeV = CN[C@H](C(=O)O)C(C)C; dNMeS = CN[C@H](CO)C(=O)O; dNMeA = CN[C@H](C)C(=O)O; Bn = c1ccc(C*)cc1

What was measured:
[1] = amide bond, 27-membered ring, PyBroP/DIEA, CH2Cl2
Candida kefyr TIMM0301 = assay: MIC by agarose plate dilution method; format: cell-based; conditions: saburo-dextrose agarose culture, 30° C., 2 days
Procedure: (§1) MIC was measured by agarose plate dilution method (cultivated at 30° C. for 2 days) using saburo-dextrose agarose culture (glucose 2 W/V %, polipeptone 1 W/V %, agarose 1.5 W/V %). Control was Aureobasidin A (AbA).

[2] = tested on: Candida glabrata TIMM1062; assay: MIC by agarose plate dilution method; format: cell-based; conditions: saburo-dextrose agarose culture, 30° C., 2 days
Procedure: as §1

[3] = tested on: Candida albicans TIMM0136; assay: MIC by agarose plate dilution method; format: cell-based; conditions: saburo-dextrose agarose culture, 30° C., 2 days
Procedure: as §1

[4] = tested on: Candida albicans TIMM0171; assay: MIC by agarose plate dilution method; format: cell-based; conditions: saburo-dextrose agarose culture, 30° C., 2 days
Procedure: as §1

[5] = tested on: Cryptococcus neoformans TIMM0354; format: cell-based; conditions: for activity for Cryptococcus compared with Aureobasidin A: in words
Procedure: as §1

[6] = tested on: Aspergillus fumigatus TIMM2766; format: cell-based
Procedure: as §1

[7] = Cryptococcus neoformans TIMM0354, saburo-dextrose agarose culture, 30° C., 2 days
[8] = Aspergillus fumigatus TIMM2766, saburo-dextrose agarose culture, 30° C., 2 days

Row | SMILES | MIC (Candida kefyr TIMM0301) [µg/mL] | MIC [2] [µg/mL] | MIC [3] [µg/mL] | MIC [4] [µg/mL] | MIC [5, 7] [µg/mL] | MIC ([5]; TIMM0354) [µg/mL] | MIC [6, 8] [µg/mL] | also measured
1 | CC[C@@H](C)[C@@H]1NC(=O)[C@@H]2CCCN2C(=O)[C@@H](C(C)C)N(C)C(=O)[C@H](Cc2ccccc2)NC(=O)[C@H](C(C)C)N(C)C(=O)[C@@H]([C@H](C)CC)OC(=O)[C@H](C(C)(C)O)N(C)C(=O)[C@H](CC(C)C)NC(=O)[C@H](C(C)C)N(C)C1=O |  |  |  |  |  |  |  | ring closure, isolated yield ([1]; from H-aIle-MeVal-Leu-βHOMeVal-dHmp-MeVal-Phe-dMeVal-Pro-OH, 1.0 mM, 25.0 °C): 35%
2 | CC[C@@H](C)[C@@H]1NC(=O)[C@@H]2CCCN2C(=O)[C@@H](C)N(C)C(=O)[C@H](Cc2ccc(F)cc2)NC(=O)[C@H](C(C)C)N(C)C(=O)[C@@H]([C@H](C)CC)OC(=O)[C@H](C(C)(C)O)N(C)C(=O)[C@H](CC(C)C)NC(=O)[C@H](C(C)C)N(C)C1=O |  |  |  |  |  |  |  | ring closure, isolated yield ([1]; from H-aIle-MeVal-Leu-βHOMeVal-dHmp-MeVal-pFPhe-dMeAla-Pro-OH, 1.0 mM, 25.0 °C): 29.8%
3 | CC[C@@H](C)[C@@H]1NC(=O)[C@@H]2CCCN2C(=O)[C@@H](C)N(C)C(=O)[C@H](Cc2ccc(OCc3ccccc3)cc2)NC(=O)[C@H](C(C)C)N(C)C(=O)[C@@H]([C@H](C)CC)OC(=O)[C@H](C(C)(C)O)N(C)C(=O)[C@H](CC(C)C)NC(=O)[C@H](C(C)C)N(C)C1=O |  |  |  |  |  |  |  | ring closure, isolated yield ([1]; from H-aIle-MeVal-Leu-βHOMeVal-dHmp-MeVal-Tyr(Bzl)-dMeAla-Pro-OH, 1.0 mM): 41.5%
4 | CC[C@@H](C)[C@@H]1NC(=O)[C@@H]2CCCN2C(=O)[C@@H](COCc2ccccc2)N(C)C(=O)[C@H](CC2CCCCC2)NC(=O)[C@H](C(C)C)N(C)C(=O)[C@@H]([C@H](C)CC)OC(=O)[C@H](C(C)(C)O)N(C)C(=O)[C@H](CC(C)C)NC(=O)[C@H](C(C)C)N(C)C1=O |  |  |  |  |  |  |  | ring closure, isolated yield ([1]; from H-aIle-MeVal-Leu-βHOMeVal-dHmp-MeVal-Cha-dMeSer(Bzl)-Pro-OH, 1.0 mM): 34.3%
5 | CC[C@@H](C)[C@@H]1NC(=O)[C@@H]2CCCN2C(=O)[C@@H](C)N(C)C(=O)[C@H](Cc2ccccc2)NC(=O)[C@H](C(C)C)N(C)C(=O)[C@@H]([C@H](C)CC)OC(=O)[C@H](C(C)(C)O)N(C)C(=O)[C@H](CC(C)C)NC(=O)[C@H](C(C)C)N(C)C1=O [Compound 1, cyclo(L -aIle-L -MeVal-L -Leu-L -βHOMeVal-D -Hmp-L -MeVal-L -Phe-D -MeAla-L -Pro)] (cyclo([aIle][NMeV]L[NMeVal(β-OH)][X1][NMeV]F[dNMeA]P)) | 0.20 (≈ 0.195 µM) | 0.20 (≈ 0.195 µM) | 0.05 (≈ 0.0488 µM) | 0.05 (≈ 0.0488 µM) | 3.12 (≈ 3.04 µM) |  |  | ring closure, isolated yield ([1]; from H-aIle-MeVal-Leu-βHOMeVal-dHmp-MeVal-Phe-dMeAla-Pro-OH, 0.97 mM, 25.0 °C): 55.5%
6 | CC[C@@H](C)[C@@H]1NC(=O)[C@@H]2CCCN2C(=O)[C@@H](C)N(C)C(=O)[C@H](CC2CCCCC2)NC(=O)[C@H](C(C)C)N(C)C(=O)[C@@H]([C@H](C)CC)OC(=O)[C@H](C(C)(C)O)N(C)C(=O)[C@H](CC(C)C)NC(=O)[C@H](C(C)C)N(C)C1=O [Compound 3, cyclo(L -aIle-L -MeVal-L -Leu-L -βHOMeVal-D -Hmp-L -MeVal-L -Cha-D -MeAla-L -Pro)] (cyclo([aIle][NMeV]L[NMeVal(β-OH)][X1][NMeV][Cha][dNMeA]P)) | 0.20 (≈ 0.194 µM) | 0.10 (≈ 0.097 µM) | 0.0125 (≈ 0.0121 µM) | 0.025 (≈ 0.0242 µM) | 0.10 (≈ 0.097 µM) | 0.10 to 0.39 | 3.12 (≈ 3.03 µM) | ring closure, isolated yield ([1]; from H-aIle-MeVal-Leu-βHOMeVal-dHmp-MeVal-Cha-dMeAla-Pro-OH, 1.0 mM, 25.0 °C): 28.6%; activity for Cryptococcus compared with Aureobasidin A [5]: stronger activity than Aureobasidin A; MIC ([6]; TIMM2766): 1.56 to 25 µg/mL
7 | CC[C@@H](C)[C@@H]1NC(=O)[C@@H]2CCCN2C(=O)[C@@H](C)N(C)C(=O)[C@H](CC(C)C)NC(=O)[C@H](C(C)C)N(C)C(=O)[C@@H]([C@H](C)CC)OC(=O)[C@H](C(C)(C)O)N(C)C(=O)[C@H](CC(C)C)NC(=O)[C@H](C(C)C)N(C)C1=O [Compound 5, cyclo(L -aIle-L -MeVal-L -Leu-L -βHOMeVal-D -Hmp-L -MeVal-L -Leu-D -MeAla-L -Pro)] (cyclo(L[dNMeA]P[aIle][NMeV]L[NMeVal(β-OH)][X1][NMeV])) |  |  |  |  |  | 0.10 to 0.39 |  | ring closure, isolated yield ([1]; from H-aIle-MeVal-Leu-βHOMeVal-dHmp-MeVal-Leu-dMeAla-Pro-OH, 1.0 mM, 25.0 °C): 39.4%
8 | CC[C@@H](C)[C@@H]1NC(=O)[C@@H]2CCCN2C(=O)[C@H](Cc2ccccc2)N(C)C(=O)[C@H](CC2CCCCC2)NC(=O)[C@H](C(C)C)N(C)C(=O)[C@@H]([C@H](C)CC)OC(=O)[C@H](C(C)(C)O)N(C)C(=O)[C@H](CC(C)C)NC(=O)[C@H](C(C)C)N(C)C1=O [Compound 6, cyclo(L -aIle-L -MeVal-L -Leu-L -βHOMeVal-D -Hmp-L -MeVal-L -Cha-L -MePhe-L -Pro)] (cyclo([aIle][NMeV]L[NMeVal(β-OH)][X1][NMeV][Cha][NMeF]P)) | 1.56 (≈ 1.41 µM) | 1.56 (≈ 1.41 µM) | 0.39 (≈ 0.352 µM) | 0.20 (≈ 0.181 µM) | 0.20 (≈ 0.181 µM) | 0.10 to 0.39 | > 25 | ring closure, isolated yield ([1]; from H-aIle-MeVal-Leu-βHOMeVal-dHmp-MeVal-Cha-MePhe-Pro-OH?, 1.01 mM, 25.0 °C): 23.9%
9 | CC[C@@H](C)[C@@H]1NC(=O)[C@@H]2CCCN2C(=O)[C@@H](C)N(C)C(=O)[C@H](COCc2ccccc2)NC(=O)[C@H](C(C)C)N(C)C(=O)[C@@H]([C@H](C)CC)OC(=O)[C@H](C(C)(C)O)N(C)C(=O)[C@H](CC(C)C)NC(=O)[C@H](C(C)C)N(C)C1=O [Compound 7, cyclo(L -aIle-L -MeVal-L -Leu-L -βHOMeVal-D -Hmp-L -MeVal-L -Ser(Bzl)-D -MeAla-L -Pro)] (cyclo(L[NMeVal(β-OH)][X1][NMeV]S(Bn)[dNMeA]P[aIle][NMeV])) |  |  |  |  |  | 0.10 to 0.39 |  | ring closure, isolated yield ([1]; from H-aIle-MeVal-Leu-βHOMeVal-dHmp-MeVal-Ser(Bzl)-dMeAla-Pro-OH, 1.0 mM, 25.0 °C): 45.2%
10 | CC[C@@H](C)[C@@H]1NC(=O)[C@@H]2CCCN2C(=O)[C@@H](C(C)C)N(C)C(=O)[C@H](CC2CCCCC2)NC(=O)[C@H](C(C)C)N(C)C(=O)[C@@H]([C@H](C)CC)OC(=O)[C@H](C(C)(C)O)N(C)C(=O)[C@H](CC(C)C)NC(=O)[C@H](C(C)C)N(C)C1=O [Compound 8, cyclo(L -aIle-L -MeVal-L -Leu-L -βHOMeVal-D -Hmp-L -MeVal-L -Cha-D -MeVal-L -Pro)] (cyclo([aIle][NMeV]L[NMeVal(β-OH)][X1][NMeV][Cha][dNMeV]P)) | 0.78 (≈ 0.736 µM) | 0.78 (≈ 0.736 µM) | 0.10 (≈ 0.0944 µM) | 0.05 (≈ 0.0472 µM) | 0.39 (≈ 0.368 µM) | 0.10 to 0.39 | > 25 | ring closure, isolated yield ([1]; from H-aIle-MeVal-Leu-βHOMeVal-dHmp-MeVal-Cha-dMeVal-Pro-OH, 1.0 mM): 20.5%
11 | CC[C@@H](C)[C@@H]1NC(=O)[C@@H]2CCCN2C(=O)[C@@H](CO)N(C)C(=O)[C@H](CC2CCCCC2)NC(=O)[C@H](C(C)C)N(C)C(=O)[C@@H]([C@H](C)CC)OC(=O)[C@H](C(C)(C)O)N(C)C(=O)[C@H](CC(C)C)NC(=O)[C@H](C(C)C)N(C)C1=O [Compound 9, cyclo(L -aIle-L -MeVal-L -Leu-L -βHOMeVal-D -Hmp-L -MeVal-L -Cha-D -MeSer-L -Pro)] (cyclo([aIle][NMeV]L[NMeVal(β-OH)][X1][NMeV][Cha][dNMeS]P)) | 0.78 (≈ 0.745 µM) | 0.78 (≈ 0.745 µM) | 0.20 (≈ 0.191 µM) | 0.20 (≈ 0.191 µM) | 0.20 (≈ 0.191 µM) | 0.10 to 0.39 | > 25 | 
12 | CC[C@@H](C)[C@@H]1NC(=O)[C@@H]2CCCN2C(=O)[C@@H](C)N(C)C(=O)[C@H](Cc2ccc(OCC3CCCCC3)cc2)NC(=O)[C@H](C(C)C)N(C)C(=O)[C@@H]([C@H](C)CC)OC(=O)[C@H](C(C)(C)O)N(C)C(=O)[C@H](CC(C)C)NC(=O)[C@H](C(C)C)N(C)C1=O [Compound 12, cyclo(L -aIle-L -MeVal-L -Leu-L -βHOMeVal-D -Hmp-L -MeVal-L -Tyr(c-C6 H11 --CH2 --)-D -MeAla-L -Pro)] (cyclo([aIle][NMeV]L[NMeVal(β-OH)][X1][NMeV]Y(Cyclohexylmethyl)[dNMeA]P)) | 1.56 (≈ 1.37 µM) | 0.39 (≈ 0.343 µM) | 0.10 (≈ 0.0879 µM) | 0.39 (≈ 0.343 µM) | 0.20 (≈ 0.176 µM) | 0.10 to 0.39 | 1.56 (≈ 1.37 µM) | ring closure, isolated yield ([1]; from H-aIle-MeVal-Leu-βHOMeVal-dHmp-MeVal-Tyr(c-C6H11-CH2)-dMeAla-Pro-OH, 1.0 mM): 52.3%; activity for Cryptococcus compared with Aureobasidin A [5]: stronger activity than Aureobasidin A; MIC ([6]; TIMM2766): 1.56 to 25 µg/mL
